Publication PMC4980415 (Psychopharmacology, 2016)
Where a name gives a salt, the structure may show the parent alone. Read-outs that look alike come from different tables or passages of the source.

Assays:
[1] = tested on: early memory consolidation in male Wistar rats; assay: Novel object recognition (NOR): early consolidation, drug 4 min after T1; format: in vivo, rat; conditions: 4 min after T1 (head prints T2 +4 min)
Description: (§1) The drug was administered, per os (po), by gavage to rats in a volume of 2 ml/kg body weight. Oral dosing solutions were prepared fresh daily. […] The pH of the dosing solution was adjusted to ~pH 5.5 by dropwise addition of 0.1 N NaOH in saline and volume adjusted by addition of saline in preparation for intraperitoneal (ip) dosing. […] Control treatments were always the vehicle solutions of the corresponding drugs.
(§2) The object recognition test was performed as described elsewhere (Ennaceur and Delacour [1988]; Akkerman et al. 2014). The apparatus consisted of a circular arena, 83 cm in diameter. Half of the 40-cm-high wall was made of gray polyvinyl chloride, the other half of transparent polyvinyl chloride. The light intensity was equal in the different parts of the apparatus, as fluorescent red tubes provided a constant illumination of about 20 lx on the floor of the apparatus. Two objects were placed in a symmetrical position at about 10 cm from the gray wall. Four different sets of objects were used. The different objects were (1) a cone consisting of a gray polyvinyl chloride base (maximal diameter 18 cm) with a collar on top made of brass (total height 16 cm), (2) a standard 1 L transparent glass bottle (diameter 10 cm, height 22 cm) filled with water, (3) a large metal cube (10.0 × 5.0 × 7.5 cm) with two holes (diameter 1.9 cm), and (4) a large aluminum cube with a tapering top (13.0 × 8.0 × 8.0 cm). The objects used in this study were carefully selected to be “novelty neutral,” that is to say the rats have no innate preference for one over the other. In all cases, objects were of sufficient size and weight that rats could not move the objects.
(§3) A testing session consisted of two trials. The duration of each trial was 3 min. During the first trial (T1), the apparatus contained two identical objects (samples). Rats were placed in the apparatus facing the wall at the middle of the front (transparent) segment. After the first exploration period, the rat was put back in its home cage. Subsequently, after a 24-h delay interval, the rat was put in the apparatus for the second trial (T2). The times spent in exploring each object during T1 and T2 were recorded manually using a personal computer.
(§4) Exploration was defined as follows: directing the nose to the object at a distance of no more than 2 cm and/or touching the object with the nose. Sitting on the object was not considered as exploratory behavior. In order to avoid the presence of olfactory cues, the objects were always thoroughly cleaned with a 70 % ethanol solution before each trial. All combinations and locations of objects were used in a balanced manner to reduce potential biases due to preferences for particular locations or objects.
(§5) During the first 2 weeks after animal arrival, the animals were handled daily. They were then adapted to the procedure over the period of 2 days by allowing them to explore the apparatus (without any objects) for 3 min twice each day. […] After this, the rats were assigned to treatment conditions in a balanced manner, thereby insuring an equal distribution of object combinations among the treatment conditions. […] In all experiments, a 24-h inter-trial interval was used. In all cases, the experimenter was unaware of the treatment conditions that were being tested.
(§6) The basic measure recorded was the time spent by each rat exploring an object during T1 and T2. The time spent in exploring the two identical samples was represented by “a1” and “a2.” The time spent in T2 in exploring the sample and new object was represented by “a” and “b,” respectively. The following variables were calculated: e1 = a1 + a2, e2 = a + b, and d2 = (b − a) / e2. The e1 and e2 are measures of the total exploration time of both objects during T1 and T2, respectively. Differences in exploration times between treatment conditions were analyzed using a t test or one-way ANOVA. […]

[2] = tested on: memory retrieval in male Wistar rats; assay: Novel object recognition (NOR): retrieval, drug 2 h before T2; format: in vivo, rat; conditions: for Exploration time e1 (T1) / Exploration time e2 (T2): 2 h before T2, 24 h interval
Description: as §1, §2, §3, §4, §5, §6

[3] = tested on: Na^+ channel (site 2), sodium channel; assay: Off-target binding, General SEP II panel; conditions: 10 μM ITI-214, mean of n = 2
[4] = tested on: Ca^2+ channel (L, DHP site); assay: Off-target binding, General SEP II panel; conditions: 10 μM ITI-214, mean of n = 2
[5] = target: T1, Potassium channel I[Kr], (hERG) (Homo sapiens, UniProt Q12809); assay: Off-target binding, General SEP II panel; conditions: 10 μM ITI-214, mean of n = 2
T1 construct: Caliper Life Sciences (contract screen)
T1 sequence (Q12809 whole entry): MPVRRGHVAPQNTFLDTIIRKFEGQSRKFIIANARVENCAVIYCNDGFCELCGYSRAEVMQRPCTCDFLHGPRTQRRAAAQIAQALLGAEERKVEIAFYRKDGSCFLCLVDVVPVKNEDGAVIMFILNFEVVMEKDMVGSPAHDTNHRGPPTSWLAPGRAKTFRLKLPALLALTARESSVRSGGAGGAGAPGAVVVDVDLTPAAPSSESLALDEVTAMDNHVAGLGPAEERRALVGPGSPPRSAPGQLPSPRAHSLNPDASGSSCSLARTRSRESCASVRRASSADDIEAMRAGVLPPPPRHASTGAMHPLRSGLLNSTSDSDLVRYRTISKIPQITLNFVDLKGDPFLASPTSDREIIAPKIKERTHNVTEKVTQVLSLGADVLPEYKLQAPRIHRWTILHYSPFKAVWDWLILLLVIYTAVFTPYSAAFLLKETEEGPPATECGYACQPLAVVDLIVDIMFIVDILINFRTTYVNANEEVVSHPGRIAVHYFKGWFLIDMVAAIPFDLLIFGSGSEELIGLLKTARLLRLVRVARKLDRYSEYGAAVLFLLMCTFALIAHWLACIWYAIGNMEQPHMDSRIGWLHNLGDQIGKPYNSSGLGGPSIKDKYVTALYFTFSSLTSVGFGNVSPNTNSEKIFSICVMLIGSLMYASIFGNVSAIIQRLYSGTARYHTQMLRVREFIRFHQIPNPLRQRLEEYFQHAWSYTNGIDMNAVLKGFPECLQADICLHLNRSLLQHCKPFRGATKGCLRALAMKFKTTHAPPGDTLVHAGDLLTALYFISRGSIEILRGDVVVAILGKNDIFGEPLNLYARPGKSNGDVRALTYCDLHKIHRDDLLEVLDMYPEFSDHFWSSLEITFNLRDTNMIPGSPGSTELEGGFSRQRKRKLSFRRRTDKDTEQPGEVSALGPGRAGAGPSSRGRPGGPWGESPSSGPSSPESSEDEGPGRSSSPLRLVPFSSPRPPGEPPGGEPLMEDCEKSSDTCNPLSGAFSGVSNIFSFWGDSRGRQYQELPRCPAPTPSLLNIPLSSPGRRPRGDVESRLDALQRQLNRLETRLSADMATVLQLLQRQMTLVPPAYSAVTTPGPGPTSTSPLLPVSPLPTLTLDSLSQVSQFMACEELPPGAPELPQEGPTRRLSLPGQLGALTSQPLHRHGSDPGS

[6] = Pharmacokinetics of ITI-214 in rats; format: in vivo; conditions: rat, oral; for concentration at 2 h: 3 mg/kg
Text: Standard methods of tissue extraction were used.

[7] = tested on: conditioned avoidance responding in male Wistar rats; assay: Conditioned avoidance response (CAR); format: in vivo, rat
Description: as §1
Avoidance behavior, escape behavior, escape failures, and inter-trial crosses were recorded, as described here: (1) avoidance (response to CS within 10 s); (2) escape (response to CS + UCS); and (3) escape failure (if the rat was unable to respond to the shock by moving into the opposite compartment within 50 s, the trial was terminated). The inter-trial interval (end of trial to start of new trial) varied randomly between 20 and 40 s. Rats were trained for five consecutive days and adapted to the shuttle box 5 min before each training session. Training sessions consisted of about 20 trials, randomly distributed over 15 min. Only rats that performed at least 90 % avoidance on the last day of training were included in the experiments. All subsequent test sessions were preceded by a pre-test to verify continued performance in the paradigm. Pre-tests and test sessions consisted of approximately ten trials, each randomly distributed over a 7.5-min period. […] Experimental days were always separated by at least two non-experimental days. Experimental tests were separated by at least 2 days to insure drug washout.
Results from the conditioned avoidance responding (CAR) protocol were analyzed using non-parametric procedures.

[8] = tested on: 70 key receptor, enzyme, and ion channel proteins; assay: 70-target diversity panel (SEP II), whole panel; format: binding; conditions: 10 μM, 70-target panel

CN1C(=O)c2c(nn(Cc3ccc(-c4cccc(F)n4)cc3)c2Nc2ccccc2)N2C1=N[C@@H]1CCC[C@@H]12 [ITI-214, (6aR,9aS)-2-(4-(6-fluoropyridin-2-yl)benzyl)-5-methyl-3-(phenylamino)-5,6a,7,8,9,9a-hexahydrocyclopenta-[4,5]imidazo[1,2-a]pyrazolo[4,3-e]pyrimidin-4-(2H)-one phosphate salt]
Exploration time e1 (T1) ([1]; 1 mg/kg po): 26.36 (1.93) s | Exploration time e2 (T2) ([1]; 1 mg/kg po): 29.66 (1.94) s | Exploration time e1 (T1) ([1]; 3 mg/kg po): 25.02 (2.20) s | Exploration time e2 (T2) ([1]; 3 mg/kg po): 30.55 (1.84) s | Exploration time e1 (T1) ([1]; 10 mg/kg po): 30.01 (1.62) s | Exploration time e2 (T2) ([1]; 10 mg/kg po): 31.35 (1.71) s | Exploration time e1 (T1) ([2]; 0.1 mg/kg po): 29.32 (1.82) s | Exploration time e2 (T2) ([2]; 0.1 mg/kg po): 28.78 (2.08) s | Exploration time e1 (T1) ([2]; 0.3 mg/kg po): 28.83 (1.84) s | Exploration time e2 (T2) ([2]; 0.3 mg/kg po): 29.31 (1.52) s | Exploration time e1 (T1) ([2]; 1 mg/kg po): 26.81 (1.72) s | Exploration time e2 (T2) ([2]; 1 mg/kg po): 33.64 (2.35) s | Exploration time e1 (T1) ([2]; 3 mg/kg po): 27.20 (1.90) s | Exploration time e2 (T2) ([2]; 3 mg/kg po): 28.60 (1.13) s | Exploration time e1 (T1) ([2]; 10 mg/kg po): 30.59 (1.98) s | Exploration time e2 (T2) ([2]; 10 mg/kg po): 30.52 (1.87) s | full effective dose (d2 different from chance and from vehicle), retrieval ([2]; po 2 h before T2): 1 mg/kg | effect on exploratory behavior during T1 or T2 ([2]; retrieval and combined sub-threshold dose experiments): no effect on exploratory behavior | % Binding [3]: 88.44% | % Binding [4]: 73.28% | % Binding [5]: 35.09% | Tmax ([6]; brain): ~1.5 h | concentration at 2 h ([6]; brain, plasma levels associated with optimal effects on acquisition, read-out: brain free fraction estimated): 0.12 nM | concentration at 2 h ([6]; plasma, 2 h after drug administration, N = 12 rats, read-out: plasma level): 30.1 ± 13.4 ng/mL | concentration at 2 h ([6]; plasma, 2 h after drug administration, read-out: free plasma concentration): 0.12 nM | effect on percent avoidances ([7]; 1 mg/kg po alone): no significant effect | effect on number of escape failures ([7]; CAR paradigm): Neither risperidone nor ITI-214 had significant effects | effect on avoidance behavior of rats given risperidone ([7]; ITI-214 1 mg/kg po with risperidone 0.8 mg/kg i.p.): did not affect avoidance behavior | number of panel targets showing >50 % binding [8]: 4
